Each compound was assayed against T1, GLP-1 Receptor (Homo sapiens, UniProt P43220) (assay: GLP-1R agonist cAMP stimulation assay, Method 1 (DiscoverX CHO-K1, enzyme fragment complementation)). Conditions: CHO-K1 cell line (DiscoverX) stably expressing GLP-1 Receptor; incubation 30 or 60 min at 37° C.; geometric mean where n>=2; read-out: GLP1R cAMP Stimulation DR: EC50 (nM) Method 1.
Assay type: cell-based
Procedure: Activation of GLP-1 receptor is known to stimulate cyclic AMP (cAMP) production in cells which indicates primary coupling to the Gas subunit of the G protein heterotrimeric complex.
Method 1: To optimize functional activity directed toward Gas coupling, a CHO—K1 cell line developed by DiscoverX stably expressing the GLP-1 Receptor was used. Cells expressing GLP-1 receptor were plated in a 384-well microtiter plates and incubated overnight at 37° C. with 5% CO2 to allow the cells to attach and grow. Media was then aspirated from the cells and replaced with 15 uL 2:1 Hanks Balanced Salt Solution (HBSS)/10mM Hepes : cAMP XS+ Ab reagent. Five microliters (5 uL) of previously generated compound sample stocks at 4x final concentration in assay buffer were then added to the cells and allowed to incubate at 37° C. for 30 or 60 minutes.
After incubation the assay signal was generated using enzyme fragment complementation (EFC). In EFC, the enzyme B-galactosidase is split into two complementary portions (EA and ED). The fragment ED is fused to cAMP and in the assay format competes with endogenous cAMP for binding to a cAMP specific antibody. Activated β—Gal is formed when exogenous EA fragment binds to free ED-cAMP (not bound to cAMP specific antibody). Activated enzyme levels are detected through conversion of β-gal chemiluminescent substrate which generates a detectable luminescence signal and read on standard microtiter plate.
The methodology for detection of cAMP using EFC requires incubation with 20uL of cAMP XS+ ED/CL lysis cocktail for one hour followed by incubation with 20 uL cAMP XS+ EA reagent for three hours at room temperature. Microplates were read following signal generation with a PerkinElmer Envision instrument utilizing chemiluminescent signal detection. Compound activity was analyzed using CBIS data analysis suite (ChemInnovation, CA). Percentage activity was calculated using the following formula:
(§1) %Activity = 100% x (mean RLU of test sample - mean RLU of vehicle control) / (mean RLU of MAX control - mean RLU of vehicle control))
(§2) This is done to account for the lognormal distribution of multiple estimates of EC50 values. In practice geometric mean is calculated by first generating log values of EC50, averaging replicates and then calculating the antilog of the average.

T1 sequence (P43220 24-463): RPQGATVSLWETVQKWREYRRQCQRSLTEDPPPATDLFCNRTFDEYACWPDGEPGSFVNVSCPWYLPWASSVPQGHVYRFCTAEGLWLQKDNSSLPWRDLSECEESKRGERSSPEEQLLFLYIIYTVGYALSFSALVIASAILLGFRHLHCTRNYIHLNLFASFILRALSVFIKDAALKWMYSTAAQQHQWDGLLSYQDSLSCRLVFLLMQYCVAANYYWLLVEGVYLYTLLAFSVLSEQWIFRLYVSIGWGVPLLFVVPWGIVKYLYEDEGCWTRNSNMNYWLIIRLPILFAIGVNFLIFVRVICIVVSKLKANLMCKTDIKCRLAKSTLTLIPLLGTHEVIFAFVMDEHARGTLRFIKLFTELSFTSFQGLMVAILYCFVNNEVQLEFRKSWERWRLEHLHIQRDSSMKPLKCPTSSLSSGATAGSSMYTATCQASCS

EC50	SMILES
0.114 nM	O=C(O)c1ccc2nc(CC3CC=C(c4ccnc(OCc5ccc(Cl)cc5F)n4)CC3)n(C[C@@H]3CCO3)c2n1 (stereo partly drawn) [Compound 104a, 2-((4-(2-((4-chloro-2-fluorobenzyl)oxy)pyrimidin-4-yl)cyclohex-3-en-1-yl)methyl)-3-(((S)-oxetan-2-yl)methyl)-3H-imidazo[4,5-b]pyridine-5-carboxylic acid]

The compounds below were run against T1, GLP-1 Receptor (assay: GLP-1R agonist cAMP stimulation assay, Method 2 (HDB HEK293/GLP1R/CRE-LUC, Cisbio cAMP dynamic 2 kit)). Conditions: HEK293/GLP1R/CRE-LUC cells (HD Biosciences); 30 min at 37° C.; 0.5 mM IBMX, 0.1% BSA; geometric mean where n>=2; read-out: GLP1R cAMP Stimulation DR: EC50 (nM) Method 2 (HDB).
Assay type: cell-based
Procedure: Method 2: Activation of GLP-1 receptor is known to stimulate cyclic AMP (cAMP) production in cells which indicates primary coupling to the Gas subunit of the G protein heterotrimeric complex.
To optimize functional activity directed toward Gas coupling, a HEK293/CRE-Luc cell line developed by HDB stably expressing the GLP-1 Receptor was used. 200× concentration of compound working solutions were prepared (Agilent Technologies Bravo) with ½log serial dilution in 384-well Echo LDV plate (Labcyte, Cat# LP-0200). […] Seal the plate and incubate at 37° C. with 5% CO2 for 30 min.
After incubation the cAMP assay signal was generated using cAMP dynamic 2 Kit (Cisbio). 5 µL cAMP-d2 working solution was added to each well, followed with 5 µL Anti-cAMP antibody-cryptate working solution added to each well using ThermoFisher Multidrop Combi. Incubate at room temperature for 1 hour protected from light.
as §1, §2

EC50	SMILES
0.12 nM	O=C(O)c1ccc2nc(CC3CC=C(c4ccnc(OCc5ccc(Cl)cc5F)n4)CC3)n(C[C@@H]3CCO3)c2n1 (stereo partly drawn) [Compound 104a, 2-((4-(2-((4-chloro-2-fluorobenzyl)oxy)pyrimidin-4-yl)cyclohex-3-en-1-yl)methyl)-3-(((S)-oxetan-2-yl)methyl)-3H-imidazo[4,5-b]pyridine-5-carboxylic acid]
0.12 nM	O=C(O)c1ccc2nc(CC3CC=C(c4ncc(F)c(OCc5ccc(Cl)cn5)n4)CC3)n(C[C@@H]3CCO3)c2n1 (stereo partly drawn) [Compound 120a, 2-((4-(4-((5-chloropyridin-2-yl)methoxy)-5-fluoropyrimidin-2-yl)cyclohex-3-en-1-yl)methyl)-3-(((S)-oxetan-2-yl)methyl)-3H-imidazo[4,5-b]pyridine-5-carboxylic acid]
0.027 nM	O=C(O)c1ccc2nc(CC3CC=C(c4cccc(OCc5ccc(Cl)cn5)n4)CC3)n(C[C@@H]3CCO3)c2n1 (stereo partly drawn) [Compound 121a, 2-((4-(6-((5-chloropyridin-2-yl)methoxy)pyridin-2-yl)cyclohex-3-en-1-yl)methyl)-3-(((S)-oxetan-2-yl)methyl)-3H-imidazo[4,5-b]pyridine-5-carboxylic acid]
0.39 nM	CC(C)(C#N)Cn1c(CC2CC=C(c3ncc(F)c(OCc4ccc(C#N)cc4F)n3)CC2)nc2ccc(C(=O)O)nc21 (stereo not drawn) [Compound 124, 2-((4-(4-((4-cyano-2-fluorobenzyl)oxy)-5-fluoropyrimidin-2-yl)cyclohex-3-en-1-yl)methyl)-3-(2-cyano-2-methylpropyl)-3H-imidazo[4,5-b]pyridine-5-carboxylic acid]
0.015 nM	O=C(O)c1ccc2nc(CC3CC=C(c4ccc(F)c(OCc5ccc(Cl)cc5F)n4)CC3)n(C[C@@H]3CCO3)c2n1 (stereo partly drawn) [Compound 113a, 2-((4-(6-((4-chloro-2-fluorobenzyl)oxy)-5-fluoropyridin-2-yl)cyclohex-3-en-1-yl)methyl)-3-(((S)-oxetan-2-yl)methyl)-3H-imidazo[4,5-b]pyridine-5-carboxylic acid]
0.83 nM	COCCn1c(CC2CC=C(c3ncc(F)c(OCc4ccc(Cl)cc4F)n3)CC2)nc2ccc(C(=O)O)nc21 (stereo not drawn) [Compound 127]
0.044 nM	O=C(O)c1ccc2nc(CC3CC=C(c4cccc(OCc5ccc(Cl)cc5F)n4)CC3)n(C[C@@H]3CCO3)c2n1 (single isomer, unassigned) [Compound 102c]
0.0088 nM	N#Cc1ccc(COc2cccc(C3=CCC(Cc4nc5ccc(C(=O)O)nc5n4C[C@@H]4CCO4)CC3)n2)c(F)c1 (single isomer, unassigned) [Compound 101b]
0.083 nM	N#Cc1ccc(COc2cccc(C3=CCC(Cc4nc5ccc(C(=O)O)nc5n4C[C@@H]4CCO4)CC3)n2)c(F)c1 (single isomer, unassigned) [Compound 101c]
0.045 nM	N#CC1(Cn2c(CC3CC=C(c4ncc(F)c(OCc5ccc(Cl)cc5F)n4)CC3)nc3ccc(C(=O)O)nc32)CC1 (stereo not drawn) [Compound 125, 2-((4-(4-((4-chloro-2-fluorobenzyl)oxy)-5-fluoropyrimidin-2-yl)cyclohex-3-en-1-yl)methyl)-3-((1-cyanocyclopropyl)methyl)-3H-imidazo[4,5-b]pyridine-5-carboxylic acid]
0.73 nM	O=C(O)c1cc2c(cn1)nc(CC1CC=C(c3cccc(OCc4ccc(Cl)cc4F)n3)CC1)n2C[C@@H]1CCO1 (stereo partly drawn) [Compound 116a, 2-((4-(6-((4-chloro-2-fluorobenzyl)oxy)pyridin-2-yl)cyclohex-3-en-1-yl)methyl)-1-(((S)-oxetan-2-yl)methyl)-1H-imidazo[4,5-c]pyridine-6-carboxylic acid]
0.067 nM	N#Cc1ccc(COc2nc(C3=CCC(Cc4nc5ccc(C(=O)O)nc5n4CC4(C#N)CC4)CC3)ncc2F)c(F)c1 (stereo not drawn) [Compound 123, 2-((4-(4-((4-cyano-2-fluorobenzyl)oxy)-5-fluoropyrimidin-2-yl)cyclohex-3-en-1-yl)methyl)-3-((1-cyanocyclopropyl)methyl)-3H-imidazo[4,5-b]pyridine-5-carboxylic acid]
0.13 nM	O=C(O)c1ccc2nc(CC3CC=C(c4ncc(F)c(OCc5ccc(Cl)cc5F)n4)CC3)n(C[C@@H]3CCO3)c2n1 (single isomer, unassigned) [Compound 114c]
0.37 nM	N#Cc1ccc(COc2cccc(C3=CCC(Cc4nc5cnc(C(=O)O)cc5n4C[C@@H]4CCO4)CC3)n2)c(F)c1 (stereo partly drawn) [Compound 117a, 2-((4-(6-((4-cyano-2-fluorobenzyl)oxy)pyridin-2-yl)cyclohex-3-en-1-yl)methyl)-1-(((S)-oxetan-2-yl)methyl)-1H-imidazo[4,5-c]pyridine-6-carboxylic acid]
0.018 nM	N#Cc1ccc(COc2nc(C3=CCC(Cc4nc5ccc(C(=O)O)nc5n4C[C@@H]4CCO4)CC3)ccc2F)c(F)c1 (stereo partly drawn) [Compound 115a, 2-((4-(6-((4-cyano-2-fluorobenzyl)oxy)-5-fluoropyridin-2-yl)cyclohex-3-en-1-yl)methyl)-3-(((S)-oxetan-2-yl)methyl)-3H-imidazo[4,5-b]pyridine-5-carboxylic acid]
0.012 nM	O=C(O)c1ccc2nc(CC3CC=C(c4ncc(F)c(OCc5ccc(Cl)cc5F)n4)CC3)n(C[C@@H]3CCO3)c2n1 (single isomer, unassigned) [Compound 114b]
0.17 nM	O=C(O)c1cnc2nc(CC3CC=C(c4nccc(OCc5ccc(Cl)cc5F)n4)CC3)n(C[C@@H]3CCO3)c2c1 (stereo partly drawn) [Compound 119a, 2-((4-(4-((4-chloro-2-fluorobenzyl)oxy)pyrimidin-2-yl)cyclohex-3-en-1-yl)methyl)-1-(((S)-oxetan-2-yl)methyl)-1H-imidazo[4,5-b]pyridine-6-carboxylic acid]
0.37 nM	CC(C)(C#N)Cn1c(CC2CC=C(c3ncc(F)c(OCc4ccc(Cl)cc4F)n3)CC2)nc2ccc(C(=O)O)nc21 (stereo not drawn) [Compound 126, 2-((4-(4-((4-chloro-2-fluorobenzyl)oxy)-5-fluoropyrimidin-2-yl)cyclohex-3-en-1-yl)methyl)-3-(2-cyano-2-methylpropyl)-3H-imidazo[4,5-b]pyridine-5-carboxylic acid]
0.43 nM	N#Cc1ccc(COc2nc(C3=CCC(Cc4nc5ccc(C(=O)O)nc5n4CC4CC4)CC3)ncc2F)c(F)c1 (stereo not drawn) [Compound 122, 2-((4-(4-((4-cyano-2-fluorobenzyl)oxy)-5-fluoropyrimidin-2-yl)cyclohex-3-en-1-yl)methyl)-3-(cyclopropylmethyl)-3H-imidazo[4,5-b]pyridine-5-carboxylic acid]
0.02 nM	O=C(O)c1cnc2nc(CC3CC=C(c4cccc(OCc5ccc(Cl)cc5F)n4)CC3)n(C[C@@H]3CCO3)c2c1 (stereo partly drawn) [Compound 118a, 2-((4-(6-((4-chloro-2-fluorobenzyl)oxy)pyridin-2-yl)cyclohex-3-en-1-yl)methyl)-1-(((S)-oxetan-2-yl)methyl)-1H-imidazo[4,5-b]pyridine-6-carboxylic acid]
59 nM	CC#CCn1c(CC2CC=C(c3cccc(OCc4ccc(Cl)cc4F)n3)CC2)nc2ccc(C(=O)O)nc21 (stereo not drawn) [Compound 128, 3-(but-2-yn-1-yl)-2-((4-(6-((4-chloro-2-fluorobenzyl)oxy)pyridin-2-yl)cyclohex-3-en-1-yl)methyl)-3H-imidazo[4,5-b]pyridine-5-carboxylic acid]
0.007 nM	O=C(O)c1ccc2nc(CC3CC=C(c4cccc(OCc5ccc(Cl)cc5F)n4)CC3)n(C[C@@H]3CCO3)c2n1 (single isomer, unassigned) [Compound 102b]
0.02 nM	O=C(O)c1ccc2nc(CC3CC=C(c4ncc(F)c(OCc5ccc(Cl)cc5F)n4)CC3)n(C[C@@H]3CCO3)c2n1 (stereo partly drawn) [Compound 114a, 2-((4-(4-((4-chloro-2-fluorobenzyl)oxy)-5-fluoropyrimidin-2-yl)cyclohex-3-en-1-yl)methyl)-3-(((S)-oxetan-2-yl)methyl)-3H-imidazo[4,5-b]pyridine-5-carboxylic acid]

Reference: patent US20230165846A1, “HETEROCYCLIC GLP-1 AGONISTS” (Gasherbrum Bio, Inc., priority 2020, published 2023)
